Each block holds one molecule with its values, some of them ahead of it.
Tests used:
[1] = Selectivity ratio of substrate activity at SLC6A14 (unknown origin) expressed in Xenopus laevis oocytes assessed as ABT0+ mediated drug uptake to drug uptake in Xenopus laevis oocytes; parameters: species or system Oocyte
thymidine phosphorylase = experiment: Half life of compound in thymidine phosphorylase buffer at 300 uM by HPLC analysis; assay type: physicochemical
[2] = Selectivity ratio of substrate activity at PEPT1 (unknown origin) expressed in MDCK cells assessed as PEPT1 mediated drug uptake to drug uptake in MDCK cells
[3] = Toxicity in NOD SCID nude mouse xenografted with human MDA-MB-231 cells assessed as body weight at 90 mg/kg, iv for 20 days (reference value: 30.1 +/- 4.1g); assay type: organism-based; conditions: in vivo, 480 h, time 20 day
MIA PaCa-2 = experiment: Antitumour activity against human MIA-PaCa-2 cells xenografted in NOD SCID nude mouse assessed as tumour inhibition at 90 mg/kg, iv administered for 20 days measured every 2 day by caliper method relative to control; assay type: functional; conditions: MIA PaCa-2, iv, 480 h, time 20 day
[4] = Half life of compound in human ZR-75-1 cell homogenate; assay type: ADME, tissue-based
[5] = molecular target: T1, Sodium- and chloride-dependent neutral and basic amino acid transporter B(0+) (Homo sapiens, UniProt Q9UN76); experiment: Substrate activity at SLC6A14 (unknown origin) expressed in Xenopus laevis oocytes assessed as ABT0+ mediated drug uptake at 0.5 mM incubated for 10 mins by HPLC analysis; assay type: ADME, cell-based; conditions: oocyte, 500 µM
T1 sequence (Q9UN76 whole entry): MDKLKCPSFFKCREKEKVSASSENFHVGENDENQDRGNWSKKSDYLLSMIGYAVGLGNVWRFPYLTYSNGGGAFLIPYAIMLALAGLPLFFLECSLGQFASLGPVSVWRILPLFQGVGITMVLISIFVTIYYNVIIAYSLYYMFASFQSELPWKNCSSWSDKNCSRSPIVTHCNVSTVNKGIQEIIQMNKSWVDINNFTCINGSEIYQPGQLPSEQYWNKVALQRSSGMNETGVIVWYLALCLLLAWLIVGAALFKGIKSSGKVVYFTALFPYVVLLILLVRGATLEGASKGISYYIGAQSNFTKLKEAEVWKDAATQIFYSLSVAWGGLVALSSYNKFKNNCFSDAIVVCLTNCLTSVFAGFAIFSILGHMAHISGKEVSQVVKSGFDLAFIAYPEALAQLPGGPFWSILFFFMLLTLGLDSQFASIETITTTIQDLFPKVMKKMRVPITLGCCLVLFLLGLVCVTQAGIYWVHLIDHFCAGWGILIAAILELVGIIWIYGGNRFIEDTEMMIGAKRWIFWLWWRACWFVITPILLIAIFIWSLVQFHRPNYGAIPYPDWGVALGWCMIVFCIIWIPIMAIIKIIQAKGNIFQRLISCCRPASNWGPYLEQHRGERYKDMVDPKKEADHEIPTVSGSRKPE

[6] = Toxicity in NOD SCID nude mouse xenografted with human MIA PaCa-2 cells assessed as body weight at 90 mg/kg, iv for 20 days (reference value: 28.4 +/- 2.1g); assay type: organism-based; conditions: in vivo, 480 h, time 20 day
[7] = AUC (0 to t) in NOD SCID nude mouse plasma xenografted with ZR-75-1 cells assessed as fluorouracil AUC at 90 mg/kg, iv measured up to 24 hrs by HPLC-MS/MS analysis; assay type: ADME, organism-based; parameters: route intravenous, dose 90 mg/kg, time <=24; conditions: in vivo
[8] = molecular target: T2, Solute carrier family 15 member 1 (Homo sapiens, UniProt P46059); experiment: Substrate activity at PEPT1 (unknown origin) expressed in MDCK cells assessed as PEPT1 mediated drug uptake at 0.5 mM incubated for 10 mins by HPLC analysis; assay type: ADME, cell-based; conditions: 500 µM
T2 sequence (P46059 whole entry): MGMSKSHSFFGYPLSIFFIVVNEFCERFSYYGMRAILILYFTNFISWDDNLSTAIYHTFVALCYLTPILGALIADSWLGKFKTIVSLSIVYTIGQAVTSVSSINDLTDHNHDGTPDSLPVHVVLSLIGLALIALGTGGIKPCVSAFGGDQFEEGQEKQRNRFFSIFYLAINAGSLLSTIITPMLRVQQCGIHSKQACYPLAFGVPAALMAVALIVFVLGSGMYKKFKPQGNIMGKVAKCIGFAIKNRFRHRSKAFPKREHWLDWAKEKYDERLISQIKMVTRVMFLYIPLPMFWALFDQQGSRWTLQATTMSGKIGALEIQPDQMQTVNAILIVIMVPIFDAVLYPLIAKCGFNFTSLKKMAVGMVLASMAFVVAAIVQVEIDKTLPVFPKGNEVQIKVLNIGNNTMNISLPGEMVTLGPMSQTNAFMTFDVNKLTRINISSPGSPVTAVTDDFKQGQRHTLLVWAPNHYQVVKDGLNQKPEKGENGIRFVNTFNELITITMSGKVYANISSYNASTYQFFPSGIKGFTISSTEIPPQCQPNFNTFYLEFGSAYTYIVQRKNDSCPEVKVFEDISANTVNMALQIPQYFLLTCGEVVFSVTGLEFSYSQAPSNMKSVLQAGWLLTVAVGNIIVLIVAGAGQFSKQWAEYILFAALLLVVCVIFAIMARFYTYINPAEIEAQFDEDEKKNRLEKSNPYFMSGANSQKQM

[9] = AUC (0 to t) in NOD SCID nude mouse plasma xenografted with ZR-75-1 cells at 90 mg/kg, iv measured up to 24 hrs by HPLC-MS/MS analysis; assay type: ADME, organism-based; parameters: route intravenous, dose 90 mg/kg, time <=24
[10] = Cmax in NOD SCID nude mouse plasma xenografted with ZR-75-1 cells assessed as fluorouracil at 90 mg/kg, iv measured up to 24 hrs by HPLC-MS/MS analysis; assay type: ADME, organism-based; parameters: route intravenous, dose 90 mg/kg, time <=24; conditions: in vivo
[11] = Cmax in NOD SCID nude mouse tumour xenografted with ZR-75-1 cells assessed as floxuridine; 5-fluoro-2-deoxyuridine concentration at 90 mg/kg, iv measured up to 24 hrs by HPLC-MS/MS analysis; assay type: ADME, organism-based, Neoplasm; parameters: route intravenous, dose 90 mg/kg, time <=24; conditions: in vivo
[12] = AUC (0 to t) in NOD SCID nude mouse tumour xenografted with ZR-75-1 cells assessed as floxuridine; 5-fluoro-2-deoxyuridine AUC at 90 mg/kg, iv measured up to 24 hrs by HPLC-MS/MS analysis; assay type: ADME, organism-based, Neoplasm; conditions: in vivo
ZR-75-1 = experiment: Antitumour activity against human ZR-75-1 cells xenografted in NOD SCID nude mouse assessed as tumour inhibition at 90 mg/kg, iv administered for 20 days measured every 2 day by caliper method relative to control; assay type: functional; conditions: ZR-75-1, iv, 480 h, time 20 day
[13] = Half life of compound in human MIA PaCa-2 cell homogenate; assay type: ADME, tissue-based
[14] = Drug uptake in MDCK cells incubated for 10 mins by HPLC analysis; assay type: ADME, cell-based, Canis lupus familiaris; conditions: dog, 500 µM, dose 0.5 mM
[15] = Half life of compound in human MDA-MB-231 cell homogenate; assay type: ADME, tissue-based
[16] = Ratio of AUC (0 to t) in NOD SCID nude mouse plasma xenografted with ZR-75-1 cells to AUC (0 to t) in NOD SCID mouse tumour xenografted with ZR-75-1 cells; assay type: ADME, cell-free, Tumor/Plasma
[17] = Drug uptake in Xenopus laevis oocytes at 0.5 mM incubated for 10 mins by HPLC analysis; assay type: ADME, cell-based; conditions: oocyte, 500 µM
MDA-MB-231 = experiment: Antitumour activity against human MDA-MB-231 cells xenografted in NOD SCID nude mouse assessed as tumour inhibition at 90 mg/kg, iv administered for 20 days measured every 2 day by caliper method relative to control; assay type: functional; conditions: MDA-MB-231, iv, 480 h, time 20 day
[18] = Toxicity in NOD SCID nude mouse xenografted with human ZR-75-1 cells assessed as body weight at 90 mg/kg, iv for 20 days (reference value: 29.2 +/- 2.5g); assay type: organism-based; conditions: in vivo, 480 h, time 20 day
[19] = molecular target: T2, Solute carrier family 15 member 1; experiment: Substrate activity at PEPT1 (unknown origin) expressed in MDCK cells assessed as inhibition of gly-sar uptake incubated for 10 mins by HPLC/MS/MS analysis; assay type: cell-based
[20] = compound: N[C@@H](CC(=O)OC[C@H]1O[C@@H](n2cc(F)c(=O)[nH]c2=O)C[C@@H]1O)C(=O)O; experiment: (§1) Substrate activity at SLC6A14 (unknown origin) expressed in Xenopus laevis oocytes assessed as Vmax by measuring ABT0+ mediated drug uptake incubated for 10 mins in presence of glycine by HPLC based Michaelis-Menten analysis; assay type: cell-based; conditions: Homo sapiens, Oocyte
[21] = compound: CC(C)[C@H](N)C(=O)OC[C@H]1O[C@@H](n2cc(F)c(=O)[nH]c2=O)C[C@@H]1O; experiment: as §1; assay type: cell-based; conditions: Homo sapiens, Oocyte
[22] = compound: N[C@@H](CCC(=O)OC[C@H]1O[C@@H](n2cc(F)c(=O)[nH]c2=O)C[C@@H]1O)C(=O)O; experiment: as §1; assay type: cell-based; conditions: Homo sapiens, Oocyte
[23] = compound: N[C@@H](CC(=O)OC[C@H]1O[C@@H](n2cc(F)c(=O)[nH]c2=O)C[C@@H]1O)C(=O)O; experiment: (§2) Substrate activity at SLC6A14 (unknown origin) expressed in Xenopus laevis oocytes assessed as Km by measuring ABT0+ mediated drug uptake incubated for 10 mins in presence of glycine by HPLC based Michaelis-Menten analysis; assay type: cell-based; conditions: Homo sapiens, Oocyte
[24] = compound: CC(C)[C@H](N)C(=O)OC[C@H]1O[C@@H](n2cc(F)c(=O)[nH]c2=O)C[C@@H]1O; experiment: as §2; assay type: cell-based; conditions: Homo sapiens, Oocyte
[25] = compound: N[C@@H](CCC(=O)OC[C@H]1O[C@@H](n2cc(F)c(=O)[nH]c2=O)C[C@@H]1O)C(=O)O; experiment: as §2; assay type: cell-based; conditions: Homo sapiens, Oocyte

half-life at 300 µM (thymidine phosphorylase): 10.2 min | half-life [4]: 13.2 min | Drug uptake [5]: < 0.04 nmol/mg/min | AUCt [7]: 4107.2 ng·h/mL | Drug uptake [8]: < 0.04 nmol/mg/min | AUC(0-t) at 24 h [9]: 3420 ng·h/mL | Cmax [10]: 434.1 ng/mL | Cmax [11]: 374.4 ng/g | AUCt [12]: 1877.1 ng·h/g | half-life [13]: 15.6 min | Drug uptake [14]: < 0.04 nmol/mg/min | half-life [15]: 23.1 min | Ratio [16]: 0.5 | Drug uptake [17]: < 0.04 nmol/mg/min | IC50 [19]: 12.2 mM
Molecule: O=c1[nH]c(=O)n([C@H]2C[C@H](O)[C@@H](CO)O2)cc1F [FLOXURIDINE]
Ratio [1]: 1 | Ratio [2]: 1 | Activity [3]: 28.4 g | inhibition in vivo at 90 mg/kg (MIA PaCa-2): 41.3% | Activity [6]: 24.7 g | inhibition in vivo at 90 mg/kg (ZR-75-1): 36.1% | inhibition in vivo at 90 mg/kg (MDA-MB-231): 36.9% | Activity [18]: 25.8 g

B1: Sodium- and chloride-dependent neutral and basic amino acid transporter B(0+) (Homo sapiens), Q9UN76 (protein)
chain: T1 sequence (Q9UN76 whole entry)
Vmax [20]: 201 pmol/mg/min | Vmax [21]: 278 pmol/mg/min | Vmax [22]: 235 pmol/mg/min | Km [23]: 35.6 µM | Km [24]: 54.6 µM | Km [25]: 84 µM

Source: ChEMBL document CHEMBL4665787, “Bifunctional and Unusual Amino Acid β- or γ-Ester Prodrugs of Nucleoside Analogues for Improved Affinity to ATB and Enhanced Metabolic Stability: An Application to Floxuridine” (J Med Chem, 2020)
